# Data published in patent publication US20080109040A1, “METHOD OF TREATING ARRHYTHMIAS” (priority 2002, published 2008).
# Read-outs that look alike come from different tables or passages of the source.
# Columns and labels:
# M cell preparations = system: M cell preparations; set-up: species or system canine; conditions: for Amplitude / Overshoot / RMP: BCL = 500 msec; for Reduction of Vmax: preparation type not stated
# Procedure: The composition of the Tyrode's solution was (in mM): […] Action potential recordings: Transmembrane potentials were recorded using standard glass microelectrodes filled with 2.7 M KCl (10 to 20 MΩ DC resistance) connected to a high input-impedance amplification system (World Precision Instruments, Sarasota, Fla., USA). […] Data recorded at BCLs of 500 and 2000 msec are presented.
# Purkinje fibers = system: Purkinje fibers; set-up: species or system canine; conditions: for Amplitude (phase 0) / Overshoot / RMP: BCL = 500 msec
# Procedure: Dogs weighing 20-25 kg were anticoagulated with heparin and anesthetized with pentobarbital (30-35 mg/kg, i.v.). The chest was opened via a left thoracotomy, the heart excised and placed in a cold cardioplegic solution ([K^+]o=8 mmol/L, 4° C.). Free running Purkinje fibers were isolated from the left and right ventricles. The preparations were placed in a tissue bath (5 ml volume with flow rate of 12 ml/min) and allowed to equilibrate for at least 30 min while superfused with an oxygenated Tyrode's solution (pH=7.35, t^0=37±0.5° C.) and paced at a basic cycle length (BCL) of 1 Hz using point stimulation. The composition of the Tyrode's solution was as following (in mM): NaCl 129, KCl 4, NaH2PO4 0.9, NaHCO3 20, CaCl2 1.8, MgSO4 0.5, and D-glucose 5.5.
# Action potential recordings: Transmembrane potentials were recorded using standard glass microelectrodes filled with 2.7 M KCl (10 to 20 MΩ DC resistance) connected to a high input-impedance amplification system (World Precision Instruments, Sarasota, Fla., USA).
# Control recordings were obtained after a 30 min equilibration period. Increasing concentrations of ranolazine (1, 5, 10, 50, and 100 μM) were evaluated, with recordings started 20 minutes after the addition of each concentration of the drug. The rate-dependence of ranolazine's actions were evaluated by recording action potentials at basic cycle lengths (BCL) of 300, 500, 800, 1000, 2000, and 5000 msec. In this report only BCLs of 500 and 2000 msec are presented as representative of relatively rapid and slow pacing rates.
# Because low extracellular K^+ is known to promote drug-induced APD prolongation and early afterdepolarizations, we determined the effects of ranolazine in the presence of normal (4 mM) and low (3 mM) [K^+]o.
# In the final phase, we evaluate the effects of ranolazine on EADs induced by d-sotalol (100 μM), a fairly specific IKr blocker.
# [1] = M cell, low [K+]o, BCL = 2000 msec
# [2] = ranolazine 1.0 μM, [K+]0 = 3.0 mM
# [3] = ranolazine 1.0 μM, [K+]0 = 4.0 mM
# [4] = ranolazine 5.0 μM, [K+]0 = 3.0 mM
# [5] = ranolazine 5.0 μM, [K+]0 = 4.0 mM
# [6] = ranolazine 10.0 μM, [K+]0 = 3.0 mM
# [7] = ranolazine 10.0 μM, [K+]0 = 4.0 mM
# [8] = ranolazine 50.0 μM, [K+]0 = 3.0 mM
# [9] = ranolazine 50.0 μM, [K+]0 = 4.0 mM
# [10] = ranolazine 100.0 μM, [K+]0 = 3.0 mM
# [11] = ranolazine 100.0 μM, [K+]0 = 4.0 mM
compound,measurement,setting,value
"COc1ccccc1OCC(O)CN1CCN(CC(=O)Nc2c(C)cccc2C)CC1 (racemic) [ranolazine, N-(2,6-dimethylphenyl)-4-[2-hydroxy-3-(2-methoxyphenoxy)propyl]-1-piperazineacetamide]",Effect on APD,"M cell preparations; M cell preparations, BCL 500 msec",abbreviation
same,Effect on APD50 and APD90,"M cell preparations; M cell, [K+]o = 4 mM, BCL = 2000 msec",concentration-dependent abbreviation
same,Effect on repolarization,"M cell preparations; M cell, low [K+]o, BCL 500 msec",little change
same,Effect on APD50,M cell preparations; [1],concentration-dependent abbreviation
same,Effect on APD90,M cell preparations; [1],no significant change
same,Amplitude,"M cell preparations; M cell, ranolazine 1.0 μM",109 ± 9
same,Overshoot,"M cell preparations; M cell, ranolazine 1.0 μM",23 ± 10
same,RMP,"M cell preparations; M cell, ranolazine 1.0 μM",−86 ± 3
same,Amplitude,"M cell preparations; M cell, ranolazine 5.0 μM",114 ± 8
same,Overshoot,"M cell preparations; M cell, ranolazine 5.0 μM",27 ± 7
same,RMP,"M cell preparations; M cell, ranolazine 5.0 μM",−86 ± 3
same,Amplitude,"M cell preparations; M cell, ranolazine 10.0 μM",113 ± 9
same,Overshoot,"M cell preparations; M cell, ranolazine 10.0 μM",25 ± 8
same,RMP,"M cell preparations; M cell, ranolazine 10.0 μM",−86 ± 2
same,Amplitude,"M cell preparations; M cell, ranolazine 50.0 μM",104 ± 7
same,Overshoot,"M cell preparations; M cell, ranolazine 50.0 μM",19 ± 3
same,RMP,"M cell preparations; M cell, ranolazine 50.0 μM",−86 ± 5
same,Amplitude,"M cell preparations; M cell, ranolazine 100.0 μM",91 ± 19
same,Overshoot,"M cell preparations; M cell, ranolazine 100.0 μM",9 ± 13
same,RMP,"M cell preparations; M cell, ranolazine 100.0 μM",−86 ± 7
same,Reduction of Vmax,"M cell preparations; ranolazine 10 μM, BCL 500 msec",modest (n.s.)
same,Reduction of Vmax,"M cell preparations; ranolazine 100 μM, BCL 500 msec",more substantial
same,Preparations in which d-sotalol-induced EAD activity was suppressed and APD abbreviated,"M cell preparations; ranolazine 5-20 μM, 100 μM d-sotalol, M cell preparations",4/4
same,Lowest concentration suppressing EADs induced by d-sotalol,Purkinje fibers,5 micromolar/L
same,Amplitude (phase 0),Purkinje fibers; [2],132 ± 6
same,Overshoot,Purkinje fibers; [2],40 ± 5
same,RMP,Purkinje fibers; [2],−92 ± 1
same,Amplitude (phase 0),Purkinje fibers; [3],120 ± 9
same,Overshoot,Purkinje fibers; [3],32 ± 7
same,RMP,Purkinje fibers; [3],−90 ± 2
same,Amplitude (phase 0),Purkinje fibers; [4],130 ± 5
same,Overshoot,Purkinje fibers; [4],38 ± 4
same,RMP,Purkinje fibers; [4],−92 ± 1
same,Amplitude (phase 0),Purkinje fibers; [5],124 ± 3
same,Overshoot,Purkinje fibers; [5],34 ± 7
same,RMP,Purkinje fibers; [5],−90 ± 2
same,Purkinje fibers in which d-sotalol-induced EADs were abolished,"Purkinje fibers; ranolazine 5 μM, d-sotalol 100 μM",4 out of 4
same,Amplitude (phase 0),Purkinje fibers; [6],128 ± 4
same,Overshoot,Purkinje fibers; [6],37 ± 4
same,RMP,Purkinje fibers; [6],−92 ± 1
same,Amplitude (phase 0),Purkinje fibers; [7],122 ± 7
same,Overshoot,Purkinje fibers; [7],32 ± 6
same,RMP,Purkinje fibers; [7],−90 ± 3
same,Amplitude (phase 0),Purkinje fibers; [8],121 ± 7
same,Overshoot,Purkinje fibers; [8],29 ± 6
same,RMP,Purkinje fibers; [8],−92 ± 1
same,Amplitude (phase 0),Purkinje fibers; [9],117 ± 7
same,Overshoot,Purkinje fibers; [9],28 ± 7
same,RMP,Purkinje fibers; [9],−89 ± 3
same,Amplitude (phase 0),Purkinje fibers; [10],114 ± 7
same,Overshoot,Purkinje fibers; [10],24 ± 7
same,RMP,Purkinje fibers; [10],−90 ± 2
same,Amplitude (phase 0),Purkinje fibers; [11],106 ± 12
same,Overshoot,Purkinje fibers; [11],19 ± 11
same,RMP,Purkinje fibers; [11],−87 ± 3
same,Effect on APD,"Purkinje fibers; ranolazine 1-10 μM, [K+]o 4 mM",either no effect or a relatively small abbreviation
same,Effect on Vmax,Purkinje fibers; ranolazine 50 and 100 μM,significant reduction
same,Effect on APD90,"Purkinje fibers; ranolazine 50 and 100 μM, [K+]o 4 mM","markedly abbreviated at slow, but not at rapid pacing rates"
same,Effect on APD50,"Purkinje fibers; ranolazine 50 and 100 μM, rapid and slow rates, [K+]o 4 mM",significantly abbreviated
